Values quoted from earlier work in patent US6090852A, “Substituted alpha-aminosulphonyl-acetohydroxamic acids as therapeutic agents” (Pfizer Inc, priority 1998, dated 2000).

Test system: human ovarian carcinoma xenografts
Conditions: mice carrying human ovarian carcinoma xenografts; Cancer Res., 1993, 53, 2087

SMILES: CNC(=O)[C@H](Cc1ccccc1)NC(=O)[C@H](CC(C)C)[C@H](CSc1cccs1)C(=O)NO [BB-94]
- survival: prolong the survival
- tumour burden: decrease the tumour burden
